From patent US12478627B2, “Irsogladine for the treatment of eosinophilic gastrointestinal diseases” (EPITHELION SCIENCE BIOTECH, S.L., priority 2019, dated 2025)
Entries after “also recorded” stand apart in the source; their conditions may differ. Structures can show the parent of a compound that is named as a salt.

Experiments:
EoE and EoGIDs = details: cited from earlier work
[1] = test system: Eosinophilic Esophagitis (EoE); experiment: Example 1: oral Irsogladine maleate in patient one with active eosinophilic esophagitis; format: in vivo, human; details: 12 weeks
Excerpt: […] […] […] A esophageal pH-metric study, performed without PPI treatment, was informed as normal. […] Without other type of examination, JCC was empirically treated in three occasions with Budesonide.
When seen, JCC was symptomatic, with difficulties to swallow food. Because of the symptoms and clinical history, Eosinophilic Esophagitis was suspected (Lucendo A J, et al. supra; Dellon E S, et al. supra; Lipowska A M, Kavitt R T. Current Diagnostic and Treatment Strategies for Eosinophilic Esophagitis. Gastroenterol Hepatol (N Y) 2017; 13(9):527-535). […] They had neither blood nor urine biological tests abnormalities. […] An Enteral Magnetic Resonance Imaging was informed as normal, without inflammatory features, increased wall thickness or strictures in the gastro-intestinal tract.
Simultaneously, biopsies were taken in all organs examined. […] Biopsies met the histological criteria of active eosinophil esophagitis (Lee S, de Boer W B, Naran A, et al. More than just counting eosinophils: proximal oesophageal involvement and subepithelial sclerosis are major diagnostic criteria for eosinophilic oesophagitis. J Clin Pathol. 2010; 63 (7):644-647; Collins M H, Capocelli K, Yang G Y. Eosinophilic Gastrointestinal Disorders Pathology. Front Med (Lausanne). 2018; 4:261). Gastric, duodenal and upper jejunal biopsies were reported as normal.
Consequently, JJC was diagnosed with active eosinophlic esophagitis. At this point in time, JJC was treated with oral Irsogladine maleate tablets, 2 mg twice a day during 12 weeks, exempting JJC from other therapies.
Also, at end of the Irsogladine treatment, endoscopic examination was repeated using Narrow Band Imaging (NBI). This technique is able to detect minimal changes in mucosa surface.

[2] = test system: Eosinophilic Esophagitis (EoE); experiment: Example 2: oral Irsogladine maleate in patient three with eosinophilic esophagitis; format: in vivo, human
Method: […] […] […] Pain tended to increase while eating.
Endoscopic procedures were performed. Colonoscopy of the entire colon and 20 cm of the distal ileum were informed as normal and staged biopsies were taken. […] Biopsies were taken in all upper gastrointestinal tract organs examined. Both, clinical symptoms and endoscopic findings are in accordance with the clinical and endoscopic criteria of EoE (Lucendo A J, Molina-Infante J, Arias Á, et al. Guidelines on eosinophilic esophagitis: evidence-based statements and recommendations for diagnosis and management in children and adults. United European Gastroenterol J. 2017; 5 (3):335-358; Dellon E S, Liacouras C A, Molina-Infante J, et al. Updated International Consensus Diagnostic Criteria for Eosinophilic Esophagitis: Proceedings of the AGREE Conference. Gastroenterology. 2018; 155 (4):1022-1033.e10.; Lipowska AM, Kavitt R T. Current Diagnostic and Treatment Strategies for Eosinophilic Esophagitis. Gastroenterol Hepatol (N Y) 2017; 13 (9):527-535; Hirano I, Moy N, Heckman M G, Thomas C S, Gonsalves N, Achem S R. Endoscopic assessment of the oesophageal features of eosinophilic oesophagitis: validation of a novel classification and grading system. Gut. 2013; 62 (4):489-495; Muir A B, Merves J, Liacouras C A. Role of Endoscopy in Diagnosis and Management of Pediatric Eosinophilic Esophagitis. Gastrointest Endosc Clin N Am. 2016; 26 (1):187-200).
These biopsies meet the diagnostic criteria of Eosinophilic Esophagitis (Lee S, de Boer W B, Naran A, et al. More than just counting eosinophils: proximal oesophageal involvement and subepithelial sclerosis are major diagnostic criteria for eosinophilic oesophagitis. J Clin Pathol. 2010; 63 (7):644-647; Collins M H, Capocelli K, Yang G Y. Eosinophilic Gastrointestinal Disorders Pathology. Front Med (Lausanne). 2018; 4: 261).
Upon confirming the diagnosis with Eosinophilic Esophagitis, JPV was treated with 4 mg of oral Irsogladine maleate twice a day for 8 weeks, without following any other treatment such as food elimination or pharmaceutical treatments (i.e. corticosteroids or monoclonal antibodies).
Due to the therapeutic efficacy shown by Irsogladine administration, it was decided to prolong JPV treatment for an additional 24 weeks (in total 32 weeks), at the same dose, with regular telephone and presential checking of symptoms and general health. […] Esophageal biopsies were taken showing no excess of eosinophil infiltrate (<10 cells/hpf) (FIGS. 12 and 13). There was neither peripheral blood eosinophilia (315 cells mm^3) nor anemia or any biological signs of inflammation.

eosinophilic jejunitis = experiment: Example 3: Irsogladine maleate in patient two with mild eosinophilic jejunitis; format: in vivo, human
[3] = patients with EoE or EoGIDs, literature reports
[4] = 2 mg twice a day, listed as Irsogladine Maleate
[5] = 4 mg twice a day, 8 weeks, listed as Irsogladine Maleate

## Cn1cnc([N+](=O)[O-])c1Sc1ncnc2nc[nH]c12 [Azathioprine]
EoE and EoGIDs; [3]
  side effects: not free of side effects
EoE and EoGIDs; two reports, small number of cases of EoE and EoGE
  efficacy: has shown efficacy

## Nc1nc(N)nc(-c2cc(Cl)ccc2Cl)n1 [Irsogladine maleate]
[1]; [4]
  endoscopic examination of esophageal mucosa (Narrow Band Imaging): Mucosa white plaques and circular trachealization disappeared
  histologic features of esophageal biopsy (eosinophil infiltration, intercellular spaces): Eosinophil infiltration has clearly reduced, and intercellular spaces are back to normal
[2]; [5]
  endoscopic aspect of esophageal mucosa: Esophageal linear furrows, white plaques and a tendency to trachealization have disappeared
  histologic features of esophageal biopsy (eosinophil infiltration, microabscesses, intercellular spaces): absence of eosinophil infiltration
[2]; 32 weeks of treatment
  histological aspect of esophageal mucosa: strictly normal
[2]; 32 weeks of treatment, listed as Irsogladine Maleate
  endoscopic aspect of esophageal mucosa: normal
Eosinophilic jejunitis; 4 mg twice a day, after 2 weeks
  symptoms: symptoms improved
Eosinophilic jejunitis; 4 mg twice a day, after 4 weeks
  symptoms: fully asymptomatic
Eosinophilic jejunitis; after 6 months maintenance treatment, 4 mg once a day
  symptoms: remained asymptomatic
Eosinophilic jejunitis; after 6 months treatment
  gastrointestinal upper endoscopy: considered normal; also recorded: normal looking upper jejunal mucosa
Eosinophilic jejunitis; after six months of daily treatment
  histology of upper jejunal mucosa biopsy: normal looking villi and no increase of eosinophilic infiltration

## Nc1nc(N)nc(-c2cc(Cl)ccc2Cl)n1 [Irsogladine, 6-(2,5-Dichlorophenyl)-1,3,5-triazine-2,4-diamine]
[1]; 2 mg twice a day
  disease remission: therapeutically effective in inducing disease remission
  endoscopic examination of esophageal mucosa (Narrow Band Imaging): esophageal mucosal furrows, white plaques and trachealization lesions had disappeared
  histologic features of esophageal biopsy (eosinophil infiltration, intercellular spaces): no dilation of intercellular spaces
  side effects: No side effects
  symptoms: Symptoms had disappeared
[1]; oral tablets 2 mg twice a day, before treatment more than 30 cells per HPF, EoE threshold 15 counts per HPF
  eosinophil counts in biopsies of the esophageal mucosa: less than 5 per HPF
[2]; 4 mg oral twice a day, 8 weeks, before treatment more than 50 per HPF
  eosinophil counts in esophageal biopsy: less than 15 per HPF
[2]; 4 mg twice a day, 8 weeks
  disease remission: therapeutically effective to induce remission
  endoscopic aspect of esophageal mucosa: endoscopically normal
  histologic features of esophageal biopsy (eosinophil infiltration, microabscesses, intercellular spaces): negligible presence of eosinophil infiltration; also recorded: no eosinophilic microabscesses and absence of intercellular dilated spaces
  side effects: No side effects
  symptoms: completely disappeared
[2]; 4 mg twice a day, additional 24 weeks (in total 32 weeks)
  eosinophil infiltrate in esophageal biopsies: < 10 cells/hpf
[2]; 32 weeks of treatment
  endoscopic aspect of esophageal mucosa: normal looking mucosa
  side effects of long-term administration: No side effects

## CCN(CCCCOC(=O)c1ccc(OC)c(OC)c1)C(C)Cc1ccc(OC)cc1.Cl (stereo not drawn) [Mebeverine Chlorhydrate]
Eosinophilic jejunitis; Omeprazole 20 mg twice a day and Mebeverine Chlorhydrate 200 mg twice daily, long periods, before Irsogladine
  response of symptoms to earlier symptomatic treatment: no improvement

## Benralizumab: mAb against IL-5 receptor
EoE and EoGIDs; [3]
  clinical symptoms: did not correspond with clinical improvement
  tissue eosinophil infiltrate: significant reduction

## Infliximab: Anti-TNFα mAb
EoE and EoGIDs; [3]
  clinical symptoms: have not shown efficacy
  tissue eosinophil infiltrate: have not shown efficacy

## Omalizumab: anti-IgE, targets a highly affinity receptor binding site of human IgE
EoE and EoGIDs; eosinophilic esophagitis, literature reports
  induction or maintenance of disease remission: failed to control or induce remission
EoE and EoGIDs; [3]
  clinical symptoms: variable effects
  tissue eosinophil infiltrate: non-significant decrease
